Source: ChEMBL document CHEMBL5212743, “Selectivity Literature for EUbOPEN Chemogenomics Library wave 3” (2023)
pEC50, pIC50, pKi: −log10 of the molar value.

Key:
Acetylcholinesterase = Acetylcholinesterase (Homo sapiens, UniProt P22303); assay: Selectivity interaction (NIBR principial panel (12 GPCRs, 3 nuclear receptors, 3 transporters, and 7 other enzymes)) EUB0000254b ACHE
[1] = target: Prostaglandin G/H synthase 2 (Homo sapiens, UniProt P35354); assay: Selectivity interaction (NIBR principial panel (12 GPCRs, 3 nuclear receptors, 3 transporters, and 7 other enzymes)) EUB0000254b PTGS2
D(3) dopamine receptor [2] = target: T1, D(3) dopamine receptor (Homo sapiens, UniProt P35462); assay: Selectivity interaction (NIBR principial panel (12 GPCRs, 3 nuclear receptors, 3 transporters, and 7 other enzymes)) EUB0000254b DRD3
T1 sequence (P35462 whole entry): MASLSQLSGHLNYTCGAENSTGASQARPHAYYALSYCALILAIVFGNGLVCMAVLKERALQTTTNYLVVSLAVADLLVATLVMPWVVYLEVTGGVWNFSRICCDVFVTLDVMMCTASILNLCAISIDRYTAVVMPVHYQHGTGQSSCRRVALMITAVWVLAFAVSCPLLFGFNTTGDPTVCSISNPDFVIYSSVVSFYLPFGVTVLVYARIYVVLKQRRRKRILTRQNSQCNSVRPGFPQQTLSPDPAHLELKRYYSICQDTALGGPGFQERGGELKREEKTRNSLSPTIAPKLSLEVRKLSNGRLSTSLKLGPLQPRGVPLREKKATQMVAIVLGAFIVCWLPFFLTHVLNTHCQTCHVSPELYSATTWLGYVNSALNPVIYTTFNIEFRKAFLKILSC

[3] = target: 5'-AMP-activated protein kinase catalytic subunit alpha-1 (Homo sapiens, UniProt Q13131); assay: Selectivity interaction (Upstate Kinase Profiler service (Millipore)) EUB0000056c PRKAA1
Sequence of 5'-AMP-activated protein kinase catalytic subunit alpha-1 (Q13131 whole entry): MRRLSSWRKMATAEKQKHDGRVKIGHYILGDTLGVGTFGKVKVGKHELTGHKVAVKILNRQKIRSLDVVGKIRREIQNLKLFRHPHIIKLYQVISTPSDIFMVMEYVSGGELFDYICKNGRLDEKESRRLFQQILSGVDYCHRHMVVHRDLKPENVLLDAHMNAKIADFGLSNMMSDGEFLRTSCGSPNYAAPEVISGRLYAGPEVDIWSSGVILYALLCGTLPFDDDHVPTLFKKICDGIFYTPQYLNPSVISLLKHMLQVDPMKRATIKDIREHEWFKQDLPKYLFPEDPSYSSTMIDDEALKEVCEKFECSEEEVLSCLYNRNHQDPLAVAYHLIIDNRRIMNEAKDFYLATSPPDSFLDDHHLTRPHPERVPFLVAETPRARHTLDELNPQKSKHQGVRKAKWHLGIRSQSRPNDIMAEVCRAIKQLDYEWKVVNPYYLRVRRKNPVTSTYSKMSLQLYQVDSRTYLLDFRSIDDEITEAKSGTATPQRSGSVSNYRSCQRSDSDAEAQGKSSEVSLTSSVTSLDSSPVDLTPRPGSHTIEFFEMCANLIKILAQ

[4] = target: Calcium/calmodulin-dependent protein kinase type II subunit beta (Homo sapiens, UniProt Q13554); assay: Selectivity interaction (Upstate Kinase Profiler service (Millipore)) EUB0000056c CAMK2B
[5] = test system: T2, Receptor-type tyrosine-protein kinase FLT3 (Homo sapiens), P36888 [D835Y]; assay: Selectivity interaction (KinomeScan (DiscoverX)) EUB0000747a FLT3; conditions: at 1 µM
T2 sequence (whole entry): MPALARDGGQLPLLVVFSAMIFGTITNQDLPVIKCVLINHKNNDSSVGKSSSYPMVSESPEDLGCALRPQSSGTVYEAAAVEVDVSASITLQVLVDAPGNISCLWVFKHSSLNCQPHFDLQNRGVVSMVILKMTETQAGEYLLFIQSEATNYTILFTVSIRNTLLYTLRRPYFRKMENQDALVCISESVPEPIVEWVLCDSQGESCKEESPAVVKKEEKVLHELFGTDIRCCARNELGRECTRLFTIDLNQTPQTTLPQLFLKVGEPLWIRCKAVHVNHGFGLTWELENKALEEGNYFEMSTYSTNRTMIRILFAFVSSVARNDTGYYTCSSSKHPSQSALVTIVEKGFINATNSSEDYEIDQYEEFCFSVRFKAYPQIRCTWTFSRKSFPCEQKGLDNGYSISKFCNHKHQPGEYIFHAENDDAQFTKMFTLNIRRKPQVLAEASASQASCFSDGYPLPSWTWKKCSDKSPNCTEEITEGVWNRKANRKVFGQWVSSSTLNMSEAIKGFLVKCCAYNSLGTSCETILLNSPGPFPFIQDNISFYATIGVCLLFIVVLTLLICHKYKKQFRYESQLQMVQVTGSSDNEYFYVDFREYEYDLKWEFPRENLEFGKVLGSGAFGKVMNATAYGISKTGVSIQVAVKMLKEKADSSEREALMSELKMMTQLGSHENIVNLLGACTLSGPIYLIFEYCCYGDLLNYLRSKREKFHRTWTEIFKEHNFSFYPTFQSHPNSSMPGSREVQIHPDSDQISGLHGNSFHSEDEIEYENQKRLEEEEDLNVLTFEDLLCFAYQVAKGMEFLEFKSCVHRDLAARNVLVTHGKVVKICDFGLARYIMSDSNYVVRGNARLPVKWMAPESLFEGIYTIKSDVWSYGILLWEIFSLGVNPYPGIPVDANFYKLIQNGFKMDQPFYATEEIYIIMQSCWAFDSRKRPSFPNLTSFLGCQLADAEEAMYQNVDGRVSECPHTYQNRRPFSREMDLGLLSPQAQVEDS

[6] = target: 5-hydroxytryptamine receptor 7 (Homo sapiens, UniProt P34969); assay: Selectivity interaction (GPCR panel (PDSP screen)) EUB0000747a HTR7
[7] = target: Microtubule-associated serine/threonine-protein kinase 1 (Homo sapiens) (UniProt Q9Y2H9); assay: Selectivity interaction (KinomeScan (DiscoverX)) EUB0000747a MAST1; conditions: at 1 µM
[8] = target: Death-associated protein kinase 2 (Homo sapiens) (UniProt Q9UIK4); assay: Selectivity interaction (KinomeScan (DiscoverX)) EUB0000747a DAPK2; conditions: at 1 µM
Sequence of Death-associated protein kinase 2 (Homo sapiens) (Q9UIK4 whole entry, looked up): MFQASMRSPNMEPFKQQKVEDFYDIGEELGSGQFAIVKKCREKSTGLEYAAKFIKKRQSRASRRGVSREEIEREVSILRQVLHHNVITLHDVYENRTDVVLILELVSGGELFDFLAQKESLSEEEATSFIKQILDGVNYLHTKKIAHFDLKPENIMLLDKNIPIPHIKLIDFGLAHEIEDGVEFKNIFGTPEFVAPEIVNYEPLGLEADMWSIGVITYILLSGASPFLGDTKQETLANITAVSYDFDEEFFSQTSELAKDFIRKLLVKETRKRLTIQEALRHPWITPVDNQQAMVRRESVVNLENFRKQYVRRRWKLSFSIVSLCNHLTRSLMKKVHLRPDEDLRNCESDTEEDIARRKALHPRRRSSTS

Ephrin type-B receptor 2 = Ephrin type-B receptor 2 (Homo sapiens, UniProt P29323)
Sequence of Ephrin type-B receptor 2 (P29323 whole entry): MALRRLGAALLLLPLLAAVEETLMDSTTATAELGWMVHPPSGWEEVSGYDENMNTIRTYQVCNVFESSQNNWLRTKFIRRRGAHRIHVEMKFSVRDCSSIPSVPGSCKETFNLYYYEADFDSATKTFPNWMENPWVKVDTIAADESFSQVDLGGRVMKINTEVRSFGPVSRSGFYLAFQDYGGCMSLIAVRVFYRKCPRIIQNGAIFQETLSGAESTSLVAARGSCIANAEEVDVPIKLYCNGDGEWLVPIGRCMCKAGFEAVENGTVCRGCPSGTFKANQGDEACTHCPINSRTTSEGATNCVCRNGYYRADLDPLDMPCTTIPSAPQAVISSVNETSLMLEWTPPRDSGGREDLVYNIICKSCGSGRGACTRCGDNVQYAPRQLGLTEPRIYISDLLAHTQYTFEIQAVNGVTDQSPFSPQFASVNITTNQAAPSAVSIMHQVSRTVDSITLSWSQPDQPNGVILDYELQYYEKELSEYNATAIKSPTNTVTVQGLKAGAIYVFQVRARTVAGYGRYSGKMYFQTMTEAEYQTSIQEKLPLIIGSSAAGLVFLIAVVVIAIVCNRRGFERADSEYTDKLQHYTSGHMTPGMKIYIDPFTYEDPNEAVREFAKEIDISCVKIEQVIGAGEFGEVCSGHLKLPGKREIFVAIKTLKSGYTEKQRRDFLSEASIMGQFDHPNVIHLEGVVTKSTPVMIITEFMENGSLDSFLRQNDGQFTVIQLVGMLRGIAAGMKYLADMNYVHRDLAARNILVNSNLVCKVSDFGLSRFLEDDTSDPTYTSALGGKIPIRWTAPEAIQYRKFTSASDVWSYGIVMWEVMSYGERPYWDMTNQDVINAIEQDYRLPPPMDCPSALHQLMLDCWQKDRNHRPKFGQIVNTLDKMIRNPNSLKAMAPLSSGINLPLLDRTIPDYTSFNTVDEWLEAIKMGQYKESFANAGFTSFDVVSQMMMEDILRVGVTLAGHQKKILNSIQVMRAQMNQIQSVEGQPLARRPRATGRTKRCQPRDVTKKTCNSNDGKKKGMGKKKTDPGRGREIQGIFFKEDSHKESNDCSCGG

Insulin receptor = Insulin receptor (Homo sapiens, UniProt P06213)
[9] = target: T3, Serine/threonine-protein kinase Sgk1 (Homo sapiens) (UniProt O00141); conditions: at 1 µM
T3 sequence (whole entry): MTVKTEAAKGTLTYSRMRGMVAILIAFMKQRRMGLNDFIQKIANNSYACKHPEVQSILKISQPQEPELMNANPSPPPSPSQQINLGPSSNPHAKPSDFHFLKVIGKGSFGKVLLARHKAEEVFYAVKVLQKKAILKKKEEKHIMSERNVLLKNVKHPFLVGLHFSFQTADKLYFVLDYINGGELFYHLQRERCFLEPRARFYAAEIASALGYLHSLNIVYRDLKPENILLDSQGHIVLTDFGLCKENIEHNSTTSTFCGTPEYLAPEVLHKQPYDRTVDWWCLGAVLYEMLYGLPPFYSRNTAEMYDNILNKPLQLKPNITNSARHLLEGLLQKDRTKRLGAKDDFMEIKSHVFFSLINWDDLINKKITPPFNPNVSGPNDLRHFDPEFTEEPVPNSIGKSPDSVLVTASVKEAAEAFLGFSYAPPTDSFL

[10] = target: Calcium/calmodulin-dependent protein kinase type IV (Homo sapiens) (UniProt Q16566); conditions: at 1 µM
Sequence of Calcium/calmodulin-dependent protein kinase type IV (Homo sapiens) (Q16566 whole entry): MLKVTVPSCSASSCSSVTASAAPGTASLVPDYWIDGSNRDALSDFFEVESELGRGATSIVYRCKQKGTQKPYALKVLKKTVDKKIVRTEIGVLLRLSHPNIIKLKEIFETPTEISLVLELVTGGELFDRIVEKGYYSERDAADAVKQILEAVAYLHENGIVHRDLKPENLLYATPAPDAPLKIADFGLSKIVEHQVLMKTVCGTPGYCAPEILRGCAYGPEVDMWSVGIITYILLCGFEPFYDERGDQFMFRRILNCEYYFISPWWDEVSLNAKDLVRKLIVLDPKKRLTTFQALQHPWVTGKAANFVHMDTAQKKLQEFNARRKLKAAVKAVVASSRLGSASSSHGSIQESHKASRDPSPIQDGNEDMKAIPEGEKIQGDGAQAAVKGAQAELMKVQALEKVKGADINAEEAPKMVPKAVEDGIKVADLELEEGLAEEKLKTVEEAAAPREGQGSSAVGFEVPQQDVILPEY

[11] = target: T4, Mitogen-activated protein kinase 15 (Homo sapiens) (UniProt Q8TD08); conditions: at 10 µM
T4 sequence (whole entry): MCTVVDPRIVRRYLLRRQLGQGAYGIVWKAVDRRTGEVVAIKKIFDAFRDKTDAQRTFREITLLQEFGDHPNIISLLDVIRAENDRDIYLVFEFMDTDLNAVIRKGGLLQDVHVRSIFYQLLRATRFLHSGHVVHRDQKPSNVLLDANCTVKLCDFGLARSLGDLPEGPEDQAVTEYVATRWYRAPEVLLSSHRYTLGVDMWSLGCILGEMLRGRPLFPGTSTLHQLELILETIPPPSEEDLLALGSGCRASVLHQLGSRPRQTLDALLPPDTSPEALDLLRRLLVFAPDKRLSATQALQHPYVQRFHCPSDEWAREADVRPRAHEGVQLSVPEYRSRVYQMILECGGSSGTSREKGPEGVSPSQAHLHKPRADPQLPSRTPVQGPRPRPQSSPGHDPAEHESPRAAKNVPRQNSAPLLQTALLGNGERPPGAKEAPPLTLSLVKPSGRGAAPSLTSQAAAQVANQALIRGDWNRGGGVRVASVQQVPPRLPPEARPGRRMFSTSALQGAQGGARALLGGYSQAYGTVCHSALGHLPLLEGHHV

[12] = target: Phosphatidylinositol 4,5-bisphosphate 3-kinase catalytic subunit alpha isoform (Homo sapiens, UniProt P42336); assay: Selectivity interaction (KinomeScan (DiscoverX)) EUB0000351a PIK3CA; conditions: at 1 µM
[13] = target: 5'-AMP-activated protein kinase catalytic subunit alpha-2 (Homo sapiens) (UniProt P54646); assay: Selectivity interaction (KinomeScan (DiscoverX)) EUB0000351a PRKAA2; conditions: at 1 µM
D(3) dopamine receptor [14] = target: T1, D(3) dopamine receptor; assay: Selectivity interaction (GPCR panel (PDSP screen)) EUB0000351a DRD3; conditions: at 10 µM
[15] = target: cGMP-inhibited 3',5'-cyclic phosphodiesterase 3A (Homo sapiens, UniProt Q14432); assay: Selectivity interaction (CEREP ligand profiling ) EUB0000351a PDE3A
[16] = target: T5, Serine/threonine-protein kinase TAO3 (Homo sapiens) (UniProt Q9H2K8); assay: Selectivity interaction (KinomeScan (DiscoverX)) EUB0000351a TAOK3; conditions: at 1 µM
T5 sequence (whole entry): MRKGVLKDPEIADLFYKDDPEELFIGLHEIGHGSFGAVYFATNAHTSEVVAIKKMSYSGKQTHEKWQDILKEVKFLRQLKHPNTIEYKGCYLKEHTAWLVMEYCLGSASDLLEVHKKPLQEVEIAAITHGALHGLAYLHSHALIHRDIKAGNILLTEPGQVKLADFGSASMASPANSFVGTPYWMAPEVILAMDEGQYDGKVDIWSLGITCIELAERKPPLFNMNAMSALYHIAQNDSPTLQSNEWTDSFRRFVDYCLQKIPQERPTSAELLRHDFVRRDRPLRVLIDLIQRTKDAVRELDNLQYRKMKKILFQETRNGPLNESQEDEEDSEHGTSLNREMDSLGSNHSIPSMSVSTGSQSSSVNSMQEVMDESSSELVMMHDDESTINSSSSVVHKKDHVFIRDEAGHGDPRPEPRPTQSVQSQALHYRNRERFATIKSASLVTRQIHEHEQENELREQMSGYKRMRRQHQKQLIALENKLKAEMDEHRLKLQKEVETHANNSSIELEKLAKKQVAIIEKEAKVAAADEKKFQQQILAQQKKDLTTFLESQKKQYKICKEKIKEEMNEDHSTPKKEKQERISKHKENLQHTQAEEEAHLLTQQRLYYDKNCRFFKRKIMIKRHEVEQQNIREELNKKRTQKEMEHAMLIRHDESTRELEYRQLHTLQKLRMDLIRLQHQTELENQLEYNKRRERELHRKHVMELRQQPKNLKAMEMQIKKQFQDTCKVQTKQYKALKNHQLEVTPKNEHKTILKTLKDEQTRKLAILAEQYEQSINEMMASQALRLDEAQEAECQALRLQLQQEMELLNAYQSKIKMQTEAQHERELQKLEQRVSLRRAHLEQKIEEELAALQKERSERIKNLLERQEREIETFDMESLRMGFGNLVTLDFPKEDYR

[17] = target: SWI/SNF-related matrix-associated actin-dependent regulator of chromatin subfamily A member 4 (Homo sapiens) (UniProt P51532); assay: Selectivity interaction (Bromodomain panel (DSF assay)) EUB0000201c SMARCA4
[18] = target: Nucleosome-remodeling factor subunit BPTF (Homo sapiens, UniProt Q12830); assay: Selectivity interaction (Bromodomain panel (DSF assay)) EUB0000201c BPTF
[19] = target: T6, Bromodomain-containing protein 7 (Homo sapiens) (UniProt Q9NPI1); assay: Selectivity interaction (Bromodomain panel (DSF assay)) EUB0000201c BRD7
T6 sequence (whole entry): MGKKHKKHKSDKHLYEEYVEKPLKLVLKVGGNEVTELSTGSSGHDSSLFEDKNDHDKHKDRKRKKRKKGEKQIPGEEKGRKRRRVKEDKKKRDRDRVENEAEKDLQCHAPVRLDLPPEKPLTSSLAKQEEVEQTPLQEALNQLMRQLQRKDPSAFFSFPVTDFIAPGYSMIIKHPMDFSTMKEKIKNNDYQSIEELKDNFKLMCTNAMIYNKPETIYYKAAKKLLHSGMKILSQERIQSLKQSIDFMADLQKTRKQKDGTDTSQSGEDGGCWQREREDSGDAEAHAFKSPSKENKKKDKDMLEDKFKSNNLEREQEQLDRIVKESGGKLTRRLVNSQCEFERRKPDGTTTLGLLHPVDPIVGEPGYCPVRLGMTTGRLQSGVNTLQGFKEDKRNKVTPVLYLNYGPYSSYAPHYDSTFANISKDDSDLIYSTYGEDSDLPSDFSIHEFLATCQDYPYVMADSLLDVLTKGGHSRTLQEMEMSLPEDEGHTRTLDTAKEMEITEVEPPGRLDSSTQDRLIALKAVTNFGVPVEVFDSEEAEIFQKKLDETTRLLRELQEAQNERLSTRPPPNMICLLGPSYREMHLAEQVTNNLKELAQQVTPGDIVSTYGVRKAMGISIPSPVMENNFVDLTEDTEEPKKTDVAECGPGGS

[20] = target: T7, Chromatin remodeling regulator CECR2 (Homo sapiens, UniProt Q9BXF3); assay: Selectivity interaction (Cellular FRAP assay) EUB0000201c CECR2
Target sequence in this assay (Q9BXF3 whole entry): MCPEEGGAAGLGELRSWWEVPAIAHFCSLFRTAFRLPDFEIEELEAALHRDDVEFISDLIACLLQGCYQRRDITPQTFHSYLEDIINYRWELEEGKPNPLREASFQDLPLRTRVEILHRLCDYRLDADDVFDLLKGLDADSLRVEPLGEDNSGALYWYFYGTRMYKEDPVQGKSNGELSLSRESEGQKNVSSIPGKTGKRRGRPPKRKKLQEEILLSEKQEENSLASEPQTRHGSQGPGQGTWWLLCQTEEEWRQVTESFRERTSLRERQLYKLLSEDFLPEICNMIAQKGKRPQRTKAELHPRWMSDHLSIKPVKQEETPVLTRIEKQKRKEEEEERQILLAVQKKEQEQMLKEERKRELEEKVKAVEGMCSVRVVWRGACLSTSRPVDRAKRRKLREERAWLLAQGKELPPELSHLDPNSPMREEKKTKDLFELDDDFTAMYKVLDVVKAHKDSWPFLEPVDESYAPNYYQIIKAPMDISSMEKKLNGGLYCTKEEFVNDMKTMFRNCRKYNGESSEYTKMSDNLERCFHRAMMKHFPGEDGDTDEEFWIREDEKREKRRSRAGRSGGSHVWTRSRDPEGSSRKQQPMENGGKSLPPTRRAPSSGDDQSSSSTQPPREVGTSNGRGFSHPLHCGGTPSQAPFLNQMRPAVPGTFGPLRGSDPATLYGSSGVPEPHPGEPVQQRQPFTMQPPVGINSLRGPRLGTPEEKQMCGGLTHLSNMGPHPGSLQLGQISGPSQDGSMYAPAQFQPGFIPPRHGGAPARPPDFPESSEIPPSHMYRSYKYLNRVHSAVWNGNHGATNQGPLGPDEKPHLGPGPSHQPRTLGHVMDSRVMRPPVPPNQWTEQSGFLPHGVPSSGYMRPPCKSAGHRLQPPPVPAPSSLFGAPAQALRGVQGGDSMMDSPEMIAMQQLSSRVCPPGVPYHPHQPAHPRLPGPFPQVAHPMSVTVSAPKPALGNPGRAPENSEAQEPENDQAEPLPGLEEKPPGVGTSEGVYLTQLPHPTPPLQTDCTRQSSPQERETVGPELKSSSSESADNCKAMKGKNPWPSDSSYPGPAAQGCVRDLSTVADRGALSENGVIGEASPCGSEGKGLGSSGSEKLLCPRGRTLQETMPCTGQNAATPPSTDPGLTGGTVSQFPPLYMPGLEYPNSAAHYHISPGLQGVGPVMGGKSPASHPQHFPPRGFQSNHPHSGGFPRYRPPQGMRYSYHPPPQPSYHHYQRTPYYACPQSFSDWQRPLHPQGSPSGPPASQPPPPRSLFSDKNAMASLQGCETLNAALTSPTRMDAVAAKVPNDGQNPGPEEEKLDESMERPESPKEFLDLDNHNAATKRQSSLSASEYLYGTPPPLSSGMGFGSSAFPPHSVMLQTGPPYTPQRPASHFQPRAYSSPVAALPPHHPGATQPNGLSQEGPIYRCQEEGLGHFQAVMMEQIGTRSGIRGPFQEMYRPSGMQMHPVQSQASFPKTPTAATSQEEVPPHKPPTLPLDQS

[21] = target: T7, Chromatin remodeling regulator CECR2; assay: (§1) Selectivity interaction (Bromodomain panel (DSF assay)) EUB0000201c CECR2
Target sequence in this assay (Q9BXF3 whole entry, looked up): as the sequence (Q9BXF3 whole entry) above

[22] = target: Bromodomain-containing protein 4 (Homo sapiens, UniProt O60885); assay: Selectivity interaction (Bromodomain panel (DSF assay)) EUB0000201c BRD4
[23] = target: Transcription initiation factor TFIID subunit 1 (Homo sapiens, UniProt P21675); assay: Selectivity interaction (Bromodomain panel (DSF assay)) EUB0000201c TAF1
[24] = target: T7, Chromatin remodeling regulator CECR2; assay: as §1; remark: listed apart in the source
Target sequence in this assay (Q9BXF3 whole entry, looked up): as the sequence (Q9BXF3 whole entry) above

[25] = target: Muscarinic acetylcholine receptor M1 (Homo sapiens, UniProt P11229); assay: Selectivity interaction (Receptor panel (Novartis) ) EUB0000164c CHRM1
Histamine H1 receptor = Histamine H1 receptor (Homo sapiens, UniProt P35367); assay: Selectivity interaction (Receptor panel (Novartis) ) EUB0000164c HRH1
[26] = target: Tyrosine-protein kinase BAZ1B (Homo sapiens) (UniProt Q9UIG0); assay: Selectivity interaction (Bromodomain panel (DSF assay)) EUB0000164c BAZ1B

Sequence of Acetylcholinesterase (P22303 whole entry): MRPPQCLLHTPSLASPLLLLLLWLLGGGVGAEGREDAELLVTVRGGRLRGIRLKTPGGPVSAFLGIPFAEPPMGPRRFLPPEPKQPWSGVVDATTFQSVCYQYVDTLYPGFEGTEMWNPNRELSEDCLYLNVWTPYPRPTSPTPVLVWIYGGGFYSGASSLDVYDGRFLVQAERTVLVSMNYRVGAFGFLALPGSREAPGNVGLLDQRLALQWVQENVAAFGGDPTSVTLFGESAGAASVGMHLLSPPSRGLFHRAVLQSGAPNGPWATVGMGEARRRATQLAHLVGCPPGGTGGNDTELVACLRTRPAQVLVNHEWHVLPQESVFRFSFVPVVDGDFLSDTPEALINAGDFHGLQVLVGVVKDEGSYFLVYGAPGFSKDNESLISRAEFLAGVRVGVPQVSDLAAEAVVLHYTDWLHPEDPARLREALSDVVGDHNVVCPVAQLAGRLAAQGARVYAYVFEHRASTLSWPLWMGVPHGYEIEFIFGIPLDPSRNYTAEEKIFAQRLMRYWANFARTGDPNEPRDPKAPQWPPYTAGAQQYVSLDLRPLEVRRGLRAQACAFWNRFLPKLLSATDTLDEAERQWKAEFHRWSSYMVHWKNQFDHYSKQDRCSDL

Compound: Cc1c(Nc2ccc(S(=O)(=O)N3CCN(C)CC3)cc2F)nc2ccc(Nc3cnn(C4CC4)c3)cn2c1=O
- pIC50 (Acetylcholinesterase): 5.26
- pIC50 [1]: 6.10
- pIC50 (D(3) dopamine receptor [2]): 6.02

Compound: Cc1ccc(-c2ccc3c(ccc4sc5c(c43)NC[C@@H](C)NC5=O)n2)cn1
- pIC50 [3]: 6.93
- pIC50 [4]: 7.15

Compound: CO[C@@H](C)c1c(Nc2ccc([C@@H](N(C)C(=O)C3CCS(=O)(=O)CC3)C(F)(F)F)cc2)cnc2cc(Cl)nn12 [NVS-MALT1-C]
- % of control [5]: 42%
- pKi [6]: < 5.00
- % of control [7]: 29%
- % of control [8]: 41%

Compound: OCCn1cc(-c2cnc3nnn(Cc4ccc5ncccc5c4)c3n2)cn1 [PF-04217903]
- pIC50 (Ephrin type-B receptor 2): < 5.00
- pIC50 (Insulin receptor): < 5.00
- % of inhibition [9]: 0.3%
- % of inhibition [10]: 22.5%
- % of inhibition [11]: 0.4%

Compound: COc1ccc2cc(OCC3(C(=O)O)CN(C(=O)c4ccc(F)cc4)C3)ccc2c1 [PF-04418948]
- % of control [12]: 42%
- % of control [13]: 28%
- % of inhibition (D(3) dopamine receptor [14]): 33%
- pIC50 [15]: 5.46
- % of control [16]: 35%

Compound: CCCS(=O)(=O)c1nc(NC2CC2)cc(-c2ccc3c(ccn3C3CC(C)(C)NC(C)(C)C3)c2)n1
- dTm [17]: < 2 K
- dTm [18]: < 2 K
- dTm [19]: < 2 K
- pEC50 [20]: 7.00
- dTm [21]: 12.5 K
- dTm [22]: < 2 K
- dTm [23]: < 2 K
- dTm [24]: 15.5 K

Compound: CC(C)NC(=O)N1CC[C@H](NC2=Nc3cc(F)ccc3N(CC(F)F)c3ccc(Cl)cc32)C1
- pIC50 [25]: 4.89
- pIC50 (Histamine H1 receptor): 4.89
- dTm [26]: 0.7 K
